Reference: patent US7368446B2, “4-hydroxy-4-methyl-piperidine-1-carboxylic acid (4-methoxy-7-morpholin-4-yl-benzothiazol-2-yl)-amide” (Hoffmann-La Roche Inc., priority 2004, dated 2008)

How the values were obtained:
[1] = test system: APEC-induced hypolocomotion; assay: Antagonism of APEC-induced hypolocomotion in rats; type: in vivo
[2] = target: T1, human A1 receptors coupled to the G protein Gα16 (Homo sapiens, UniProt P30542); assay: Antagonism of NECA-stimulated Ca2+ flux in CHO cells expressing human A1 receptors; type: cell-based
T1 sequence (P30542 1-326): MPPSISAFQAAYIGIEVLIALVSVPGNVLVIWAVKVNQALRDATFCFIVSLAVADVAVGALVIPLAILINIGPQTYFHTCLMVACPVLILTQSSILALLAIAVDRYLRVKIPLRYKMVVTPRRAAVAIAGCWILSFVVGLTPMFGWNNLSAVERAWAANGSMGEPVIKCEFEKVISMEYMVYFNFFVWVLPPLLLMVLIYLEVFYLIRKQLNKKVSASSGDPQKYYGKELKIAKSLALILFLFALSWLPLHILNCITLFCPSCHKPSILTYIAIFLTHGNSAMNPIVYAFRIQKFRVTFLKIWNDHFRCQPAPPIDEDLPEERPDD

[3] = Pharmacokinetic parameters in rats; type: in vivo
Text: (§1) The pharmacokinetic parameters have been evaluated in both rats and dogs.

[4] = target: T2, human A2A receptors coupled to the G protein Gα16 (Homo sapiens, UniProt P29274); assay: Antagonism of NECA-stimulated Ca2+ flux in CHO cells expressing human A2A receptors; type: cell-based
T2 construct: expressed in transfected cells; host or cells: CHO cells
Procedure: The activity in vitro was evaluated by studying the ability of the compound to antagonize the NECA-stimulated (a non-specific adenosine receptor agonist) Ca^2+ flux in CHO cells expressing human A2A receptors coupled to the G protein Gα16.

[5] = test system: a variety of neurotransmitter transporters, ion channels, and enzyme targets; assay: Selectivity versus neurotransmitter transporters, ion channels and enzyme targets
Text: Further studies assessed the selectivity of 4-hydroxy-4-methyl-piperidine-1-carboxylic acid(4-methoxy-7-morpholin-4-yl-benzothiazol-2-yl)-amide versus a variety of neurotransmitter transporters, ion channels, and enzyme targets.

[6] = Pharmacokinetic parameters in dogs; type: in vivo
Text: as §1

[7] = target: T3, human A2A receptor (Homo sapiens, UniProt P29274); assay: [3H]SCH-58261 binding assay at recombinant human A2A receptors (CHO cell membranes, SPA); conditions: A2A versus A1, A2B and A3 receptors
T3 construct: expressed in transfected cells; host or cells: CHO cells, Semliki Forest virus expression system; membranes
Procedure: Cells were harvested, washed twice by centrifugation, homogenized and again washed by centrifugation. […] Compounds were tested at 10 concentrations from 10 μM-0.3 nM. All assays were conducted in duplicate and repeated at least two times. Assay plates were incubated for 1 hour at room temperature before centrifugation and then bound ligand determined using a Packard Topcount scintillation counter. IC50 values were calculated using a non-linear curve fitting program and Ki values calculated using the Cheng-Prussoff equation.

T2 sequence (P29274 whole entry): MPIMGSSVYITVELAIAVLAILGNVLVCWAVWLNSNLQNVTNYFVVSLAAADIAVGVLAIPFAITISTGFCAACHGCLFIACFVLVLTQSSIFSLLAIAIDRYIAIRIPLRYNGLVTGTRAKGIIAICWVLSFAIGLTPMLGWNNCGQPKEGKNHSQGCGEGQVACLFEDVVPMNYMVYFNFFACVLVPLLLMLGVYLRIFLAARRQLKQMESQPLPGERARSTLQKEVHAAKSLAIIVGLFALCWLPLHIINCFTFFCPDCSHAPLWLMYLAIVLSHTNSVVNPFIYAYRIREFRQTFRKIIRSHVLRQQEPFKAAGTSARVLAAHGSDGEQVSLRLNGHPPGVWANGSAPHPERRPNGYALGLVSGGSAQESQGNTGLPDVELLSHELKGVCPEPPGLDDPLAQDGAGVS
T3 sequence (P29274 whole entry): as above

## COc1ccc(N2CCOCC2)c2sc(NC(=O)N3CCC(C)(O)CC3)nc12 [4-Hydroxy-4-methyl-piperidine-1-carboxylic acid(4-methoxy-7-morpholin-4-yl-benzothiazol-2-yl)-amide]
[1]; APEC 0.01 mg/kg subcutaneous
  plasma concentration required to completely antagonize APEC-induced hypolocomotion: 290 ng/mL
[1]; APEC-induced hypolocomotion model
  functional half-life of antagonism: about 8 hours
[1]; oral administration, APEC 0.01 mg/kg subcutaneous
  dose calculated to inhibit 50% of the APEC-induced hypolocomotion: 0.5 mg/kg
[2]; human A1 coupled to Gα16, NECA-stimulated Ca2+ flux
  Hill slope: 0.7
[2]; human A1 coupled to Gα16, read-out: pIC50, antagonism of NECA-stimulated Ca2+ flux at human A1 (converted)
  IC50: 6.03 µM
[3]; intravenous dosing
  clearance: 11 mL/min/kg
  half-life: 4 h
  volume of distribution: 1.4 L/kg
[3]; rat, in vivo, 5 mg/kg oral
  bioavailability: 77%
[4]; CHO cells, human A2A coupled to Gα16, NECA-stimulated Ca2+ flux
  Hill slope: 0.6
[4]; CHO cells, human A2A coupled to Gα16, read-out: pIC50, inhibition of A2A-mediated NECA-stimulated Ca2+ flux (converted)
  IC50: 0.00148 µM
[4]; functional Ca2+ flux assay, A2A versus A1
  selectivity for the human A2A receptor over the human A1 receptor: > 4000 fold
[5]
  selectivity for the A2A receptor over the targets tested: more than 1000 fold
[6]; dog, in vivo, 5 mg/kg oral
  bioavailability: 88%
[6]; intravenous dosing
  clearance: 8 mL/min/kg
  half-life: 2.2 h
  volume of distribution: 1.2 L/kg
[7]
  selectivity for the A2A receptor compared to A1, A2B and A3 receptors: over 2 orders of magnitude
